Like-named read-outs stand apart in the source and are kept apart here.
Columns and labels:
rat liver DHFR = target: T1, rat liver DHFR (Rattus norvegicus, UniProt Q920D2); assay: Inhibition of rat liver DHFR (spectrophotometric assay; I50 and Ki); format: biochemical
T1 construct: from tissue; host or cells: liver of male Wistar rats; homogenate supernatant, pH 5.1 step, dialysed, partially purified
T1 sequence (Q920D2 1-187): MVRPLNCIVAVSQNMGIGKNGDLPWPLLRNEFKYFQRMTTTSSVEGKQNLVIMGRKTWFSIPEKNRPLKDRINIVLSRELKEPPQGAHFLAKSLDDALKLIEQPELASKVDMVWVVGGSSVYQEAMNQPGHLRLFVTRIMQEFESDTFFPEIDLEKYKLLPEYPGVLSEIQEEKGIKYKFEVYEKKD
Protocol: All solutions were prepared on the day previous to the experiment and stored in the dark at 4° C. prior to use.
The stock solutions were diluted, as necessary, immediately before use to produce the required inhibitor concentration.
B.1 Preparation of partially purified DHFR
All further manipulations were performed at 4° C.: the livers (30.7 g) were transferred to a Waring blender to which approximately 8 volumes of water was added (final volume c.a. 300 ml), whereupon the mixture was homogenised for 2 minutes for periods of 30s, allowing 30s between each run to minimise heating. Liver homogenate was centrifuged at approximately 20,000 g for 20 minutes and the pellet was discarded. The supernatant liquid was adjusted to pH 5.1 with dilute acetic acid (1.0 M initially and 0.1 M finally) and after centrifugation at 27,000 g for a further 20 minutes, the clear wine-red solution was transferred to visking tubing (2.5 cm diameter) and dialysed for 12 hours against 0.01 sodium acetate buffer solution. The dialysate was examined and if turbid, centrifuged again at 27,000 g for 20 minutes. The clear preparation was transferred to sterile plastic stoppered tubes (10 ml) and stored at -10° C. prior to use.
B.2. Preparation of reagent solutions
The buffer was kept at 4° C. to prevent bacterial growth and discarded after 3 days.
The solution was maintained at 0° C.
An aqueous solution of NADPH (2 mg.ml^-1, 2.0 mM) was prepared immediately prior to use and again maintained at 0° C.
B.3 Assay for inhibitor activity
Plastic disposable cuvettes were used throughout.
The assay was carried out as follows: NADPH (0.1 ml) and the enzyme preparation (0.1 ml) were incubated at 30° C. for 5 minutes in phosphate buffer (total volume 1.9 ml).
Reference cuvettes were set up containing NADPH, buffer, inhibitor if appropriate and dihydrofolate, but without enzyme (Table A).
Enzyme activity was estimated from the slope of the change of absorbance with time and this was arbitrarily designated as 100% for the uninhibited enzyme.
The remaining inhibitors were selected for I50 determinations and inhibitory activity was evaluated in duplicate at a minimum of four inhibitor concentrations, from which the I50 value was determined by a graphical method.
Compounds selected for inhibition constant (KI) determinations were assayed following an identical method to that described above except that inhibitory activity was measured at a minimum of ten inhibitor concentrations, again in duplicate, from which the appropriate KI values were determined by a Zone B analysis.

[1] = system: P388 lymphocytic leukaemia; assay: In vivo antitumor screening against P388 lymphocytic leukaemia in mice; conditions: Mus musculus, P388, ip, free base, intraperitoneal, NCI protocols, read-out: Optimum T/C; for response vs control in vivo at 240 mg/kg: optimum dose 240 mg/kg; for response vs control in vivo at 100 mg/kg: optimum dose 100 mg/kg; for response vs control in vivo at 200 mg/kg: optimum dose 200 mg/kg
Source text: ^a All compounds administered to mice as free bases via
intraperitoneal route according to NCI protocols.

[2] = system: L1210 murine leukaemia cells; assay: In vitro cytotoxicity against L1210 cells; format: cell-based; conditions: Mus musculus
Protocol: In vitro cytotoxicity studies
Cells were seeded routinely every 72 hours at 10^4 cells.ml^-1 and counted as 10^6 cells.ml^-1 prior to each experiment and counts were performed following incubation (5% CO2 in air at full humidity) for 72 hours at 37° C., with the appropriate concentration of drug.

[3] = system: M5076 reticulum cell sarcoma; format: in vivo; conditions: for Death: mouse, in vivo;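 on all read-outs here: mice bearing tumor implanted intramuscularly on day 1, given compound intraperitoneally once a day for 17 days in arachis oil containing 10% DMSO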
Source text: Tumor: implanted intramuscularly on day 1
Drug: in 10% DMSO/arachis oil administered daily for
17 days by intraperitoneal route.
*Test/Control assessed at day 24

[4] = Table II, rat liver DHFR, 95% confidence limits, read-out: Ki
[5] = Table III, drug concentration necessary to reduce the 72 hour cell count to 50% of control, read-out: IC50, cytotoxicity against L1210 cells in vitro
[6] = Table I, solvent B = 0.1 M hydrochloric acid, read-out: I50, inhibition of rat liver DHFR
[7] = Table IV, 72 hours, read-out: IC50 (L1210 cells)
[8] = 0.75 mg/kg/day, Test/Control assessed at day 24, i.p.
[9] = 3.125 mg/kg/day, Test/Control assessed at day 24, i.p.
[10] = 6.25 mg/kg/day, Test/Control assessed at day 24, i.p.
[11] = 12.5 mg/kg/day, Test/Control assessed at day 24, i.p.
[12] = Table IV, read-out: I50, rat liver dihydrofolate reductase

CCCCOc1ccc(-c2c(N)nc(N)nc2CC)cc1[N+](=O)[O-] [OBu^n]
IC50 (rat liver DHFR; Table I, solvent A = water, tested as ethanesulphonate salt, read-out: I50, inhibition of rat liver DHFR): 60 nM | Ki (rat liver DHFR; [4]): 0.08 ± 0.06 nM

CCc1nc(N)nc(N)c1-c1ccc(NC(C)c2ccccc2)c([N+](=O)[O-])c1 (racemic) [Compound 9, 2,4-diamino-6-ethyl-5-(4-(±)-α-methylbenzylamino-3-nitrophenyl)-pyrimidine]
response vs control in vivo at 30 mg/kg ([1]; optimum dose 30 mg/kg): 132%

CCCCNc1ccc(-c2c(N)nc(N)nc2CC)cc1[N+](=O)[O-] [Compound 4, 2,4-Diamino-5-(4-n-butylamino-3-nitrophenyl)-6-ethylpyrimidine]
IC50 [2, 5]: 200 nM | response vs control in vivo at 240 mg/kg [1]: 206% | Ki (rat liver DHFR; Table II, rat liver DHFR, 95% confidence limits, tested as ethanesulphonate salt, read-out: Ki): 0.19 ± 0.05 nM

CCOc1ccc(-c2c(N)nc(N)nc2CC)cc1[N+](=O)[O-] [OEt]
IC50 (rat liver DHFR; [6]): 140 nM

CCc1nc(N)nc(N)c1-c1ccc(NCc2ccc(C(F)(F)F)cc2)c([N+](=O)[O-])c1 [Compound 28, 2,4-diamino-5-[3-nitro-4-(4-trifluoromethylbenzylamino)phenyl]-6-ethylpyrimidine]
T/C × 100 ([3]; ip, 3.125 mg/kg, 576 h): 40 | Tumor volume ([3]; ip, 6.25 mg/kg): 454 mm^3 | T/C × 100 ([3]; ip, 6.25 mg/kg, 576 h): 20 | Tumor volume ([3]; ip, 12.5 mg/kg): 265 mm^3 | T/C × 100 ([3]; ip, 12.5 mg/kg, 576 h): 12 | T/C × 100 ([3]; ip, 25 mg/kg, 576 h): < 8 | Death [3]: Dead

CCc1nc(N)nc(N)c1-c1ccc(N(C)Cc2ccc(C(=O)O)cc2)c([N+](=O)[O-])c1.O [Compound 20, 2,4-Diamino-6-ethyl-5-{4-[N-(4-carboxybenzyl)-N-methylamino]-3-nitrophenyl}pyrimidine monohydrate]
IC50 [2, 7]: 15 nM | T/C × 100 [3, 8]: 100 | T/C × 100 [3, 9]: 107 | T/C × 100 [3, 10]: 89 | T/C × 100 [3, 11]: 100

CCc1nc(N)nc(N)c1-c1ccc(OC)c([N+](=O)[O-])c1 [OMe]
response vs control in vivo at 120 mg/kg ([1]; optimum dose 120 mg/kg): 189% | IC50 (rat liver DHFR; [6]): 180 nM

CCc1nc(N)nc(N)c1-c1ccc(NCc2ccc(Cl)c(Cl)c2)c([N+](=O)[O-])c1 [Compound 23, 2,4-Diamino-5-[4-(3,4-dichlorobenzylamino)-3-nitrophenyl]-6-ethylpyrimidine]
T/C × 100 ([3]; ip, 3.125 mg/kg, 576 h): 48 | T/C × 100 ([3]; ip, 6.25 mg/kg, 576 h): 36 | T/C × 100 ([3]; ip, 12.5 mg/kg, 576 h): 16 | T/C × 100 ([3]; ip, 25 mg/kg, 576 h): < 8 | T/C × 100 ([3]; ip, 50 mg/kg, 576 h): < 8

CCc1nc(N)nc(N)c1-c1ccc(NCc2ccc(C)cc2)c([N+](=O)[O-])c1 [Compound 25, 2,4-Diamino-5-[4-(4-methylbenzylamino)-3-nitrophenyl]-6-ethylpyrimidine]
T/C × 100 ([3]; ip, 3.125 mg/kg, 576 h): 76 | T/C × 100 ([3]; ip, 6.25 mg/kg, 576 h): 44 | T/C × 100 ([3]; ip, 12.5 mg/kg, 576 h): 24 | T/C × 100 ([3]; ip, 25 mg/kg, 576 h): 20 | Death [3]: Dead

CCc1nc(N)nc(N)c1-c1ccc(NCc2ccccc2)c([N+](=O)[O-])c1 [Compound 5, 2,4-Diamino-5-(4-benzylamino-3-nitrophenyl)-6-ethylpyrimidine]
IC50 [2, 5]: < 1 nM | response vs control in vivo at 240 mg/kg [1]: 126%

CCc1nc(N)nc(N)c1-c1ccc(N(C)Cc2ccc(C(=O)OC)cc2)c([N+](=O)[O-])c1 [Compound 15, 2,4-Diamino-6-ethyl-5-{4-[N-(4-methoxycarbonylbenzyl)-N-methylamino]-3-nitrophenyl}pyrimidine]
IC50 [2, 7]: 100 nM

CCc1nc(N)nc(N)c1-c1ccc(N(C)C)c([N+](=O)[O-])c1 [Compound 3, 2,4-Diamino-5-(4-dimethylamino-3-nitrophenyl)-6-ethylpyrimidine]
response vs control in vivo at 100 mg/kg [1]: 145%

Cc1nc(N)nc(N)c1-c1ccc(Cl)c(Cl)c1 [metoprine, reference compound]
response vs control in vivo at 50 mg/kg ([1]; optimum dose 50 mg/kg): 140%

CCc1nc(N)nc(N)c1-c1ccc(N(C)Cc2ccccc2)c([N+](=O)[O-])c1 [Compound 6, 2,4-Diamino-6-ethyl-5-(4-N-methylbenzylamino-3-nitrophenyl)pyrimidine]
response vs control in vivo at 480 mg/kg ([1]; optimum dose 480 mg/kg): 205%

CCc1nc(N)nc(N)c1-c1ccc(NCCc2ccccc2)c([N+](=O)[O-])c1 [Compound 10, 2,4-Diamino-6-ethyl-5-(3-nitro-4-phenethylaminophenyl)-pyrimidine]
response vs control in vivo at 200 mg/kg [1]: 142%

CCc1nc(N)nc(N)c1-c1ccc(NCc2ccc(OC)cc2)c([N+](=O)[O-])c1 [Compound 18, 2,4-Diamino-6-ethyl-5-{4-[N-(4-methoxybenzyl)amino]-3-nitrophenyl}pyrimidine]
IC50 [2, 7]: 50 nM | IC50 (rat liver DHFR; [12]): 21 nM | Ki (rat liver DHFR; Table IV, read-out: Ki, rat liver dihydrofolate reductase): 0.088 nM

CCc1nc(N)nc(N)c1-c1ccc(N(C)Cc2ccc(OC)cc2)c([N+](=O)[O-])c1 [Compound 17, 2,4-Diamino-6-ethyl-5-{4-[N-(4-methoxybenzyl)-N-methylamino]-3-nitrophenyl}pyrimidine]
IC50 [2, 7]: 70 nM

CCc1nc(N)nc(N)c1-c1ccc(NC)c([N+](=O)[O-])c1 [Compound 1, 2,4-Diamino-5-(4-methylamino-3-nitrophenyl)-6-ethylpyrimidine]
response vs control in vivo at 100 mg/kg [1]: 182%

CCc1nc(N)nc(N)c1-c1ccc(N(CC)Cc2ccccc2)c([N+](=O)[O-])c1 [Compound 7, 2,4-Diamino-6-ethyl-5-(4-N-ethylbenzylamino-3-nitrophenyl)pyrimidine]
response vs control in vivo at 200 mg/kg [1]: 144% | Ki (rat liver DHFR; [4]): 0.04 ± 0.03 nM

CCOCCOC(=O)c1ccc(CN(C)c2ccc(-c3c(N)nc(N)nc3CC)cc2[N+](=O)[O-])cc1 [Compound 16]
IC50 [2, 7]: 40 nM | IC50 (rat liver DHFR; [12]): 1.5 nM

CCc1nc(N)nc(N)c1-c1ccc(N(C)Cc2ccc(C(=O)NC)cc2)c([N+](=O)[O-])c1 [Compound 19, 2,4-Diamino-6-ethyl-5-(4-{N-[4-(N-methylcarbamoyl)benzyl]-N-methylamino}-3-nitrophenyl)pyrimidine]
IC50 [2, 7]: 25 nM | T/C × 100 [3, 8]: 67 | T/C × 100 [3, 9]: 41 | T/C × 100 [3, 10]: 30 | T/C × 100 [3, 11]: 15 | Tumor volume ([3]; ip, 12.5 mg/kg): 443 mm^3

Reference: patent publication US4992444A, “Antifolate agents” (priority 1986, dated 1991)
